According to publication PMC4844702, “Selective inhibition of the kinase DYRK1A by targeting its folding process” (Nature Communications, 2016):
Read-outs that look alike come from different tables or passages of the source.

Columns and labels:
p-Ser97 of FLAG-DYRK1A = assay: p-Ser97 signal of FLAG-DYRK1A in HEK293 cells treated with phosphatase inhibitors; format: cell-based; settings: HEK293, with doxycycline 8 h
Excerpt: blotanalysisusing antibodies against p- Ser97 and FLAG. If Ser97 autophosphorylation were mediated by an intermolecular mechanism, then Ser97 of the kinase- dead K188R mutant would be phosphorylated when expressed in the presence of DD-FLAG-DYRK1A. However, in spite of the excess amount of DD- FLAG-DYRK1A, the phosphorylation of Ser97 in the kinase- dead mutant didnot increase compared toresults obtainedin the absence of DD- FLAG-DYRK1A.
Representative data from the triplicate experiments is shown.
(b) HEK293 cells harbouring the empty vector or the expression vector of DD -FLAG-DYRK1A with the bicistronic expression cassette of the kinase- dead FLAG- DYRK1A (K188R) and EGFP were incubated with Shield- 1 at the indicated concentrations for 16 h. After accumulation of DD- FLAG-DYRK1A, FLAG- DYRK1A (K188R) was expressed for 16 h in the presence of Shield- 1 and doxycycline. The kinase- dead FLAG- DYRK1A (K188R) didnot increase in the presence of DD- FLAG-DYRK1A, supporting the conclusion in (a).Representative data from the triplicate experiments is shown.
(c) p- Ser97 is susceptible to dephosphorylation in HEK293 cells. The HEK293 cells were treated with the indicated concentration of calyculin A, okadaic acid, and cantharidic acid in the presence of doxycycline for 8 h. The total cell lysates were subjected to immunoprecipitation using antibody against FLAG- tag. The immuno- precipitated FLAG- DYRK1A was detected using antibodies against p- Ser97 and FLAG- tag. […]
with cantharidic acid increased the p- Ser97 signal. In contrast, the treatment with calyculin A […]
which may indicate that calyculin A and okadaic acid inhibited dephosphorylation of other sites […]
phosphatases inhibited by these compounds have not been completely identified. Phosphatase(s) inhibited by cantharidic acid may play a role in dephosphorylation of p -Ser97 in the cells. […]
antibody- conjugated beads. […] Each protein was detected with the corresponding antibodies against p- Ser97 or FLAG. […]
(e) The band intensities in ( d) were quantified. […]

[1] = system: transitional intermediate of Drosophila DYRK2; set-up: method as in PMID 17188038; settings: cited from earlier work
mature Drosophila DYRK2 = system: mature Drosophila DYRK2; set-up: method as in PMID 17188038; settings: cited from earlier work
DYRK1B = assay: Rescue of Xenopus laevis embryos injected with DYRK1B mRNA; format: in vivo; settings: 2.5 μM
Excerpt: (§1) Uninjected embryos were used as controls. Development of the embryos was allowed to proceed to stage 40 in the dark. Representative images are shown. […] The results are the means±s.e.m. of triplicate experiments (n=55). (c) RT–PCR analysis of the neural marker genes in the head regions of the embryos at stage 25. Each of the marker genes indicates a specific region: NCAM for the pan-neural region, Brain Factor-1 (BF-1) for the forebrain, Pax-6 and Rx-1 for the eye, Otx-2 for the fore-midbrain, Engrailed-2 (En-2) for the mid-hindbrain and Krox-20 for the hindbrain. Ornithine decarboxylase (ODC) is an internal control.
(§2) DYRK1A and DYRK1B mRNA, which were synthesized from linearized vectors with the mMessage mMachine Kit (Life Technologies), were injected into two dorsal blastomeres at the eight-cell-stage for RT–PCR analysis and observation of the embryo phenotypes. […] The head regions of the injected embryos were dissected at the neural stage (stage 25) and the total RNA was isolated using TRIzol (Life Technologies). cDNA synthesis was carried out using Moloney murine leukaemia virus reverse transcriptase (Life Technologies). The sequences of the primer pairs were as follows[51][52]: NCAM, 5′-[…]-3′ and 5′-[…]-3′; Brain factor 1 (BF-1), 5′-[…]-3′ and 5′-[…]-3′; Pax-6, 5′-[…]-3′ and 5′-[…]-3′; Rx1, 5′-[…]-3′ and 5′-[…]-3′; Otx-2, 5′-[…]-3′ and 5′-[…]-3′; En-2, 5′-[…]-3′ and 5′-[…]-3′′; Krox-20, 5′-[…]-3′ and 5′-[…]-3′; ornithine decarboxylase (ODC), 5′-[…]-3′ and 5′-[…]-3′. No randomization was used, and no blinding was done.

DYRK1A [2] = assay: Rescue of Xenopus laevis embryos injected with DYRK1A mRNA; format: in vivo; settings: 2.5 μM
Excerpt: as §1, §2

DYRK1A [3] = biological target: T1, DYRK1A (Homo sapiens, UniProt Q13627); assay: SPHINKS assay: TAU (Thr212) phosphorylation by induced DYRK1A in HEK293 cells, western blot; format: cell-based; set-up: expressed in transfected cells; host or cells: Flp-In/T-REx HEK293
Experimental: TAU was expressed in a fused form with the destabilization domain FKBP12 (DD), which causes degradation of DD fusion proteins in the absence of a small molecule, Shield-1 (ref. [26]).
To distinguish kinase inhibition at the transitional state from that after maturation, we set up two types of time courses. […] Following additional incubation with Shield-1 for 2 h, total cell lysates were harvested, then subjected to western blot.
Cells were then cultured 24 h later in the presence of 1 μg ml^−1 of doxycycline (Nacalai Tesque) for 16 h, then treated with 1 μM of Shield-1 (Clontech, Takara Bio) for 2 h. Small molecules from our chemical library were diluted in 1 ml of DMEM and 1% FBS, then administered into the cells at a final concentration of 10 μM (0.1% DMSO), as illustrated in Fig. 1a. Total cell lysates were prepared with SDS-urea buffer (50 mM Tris-HCl, pH 7.0, 1% SDS, 4 M urea, 10% glycerol, 20 mM dithiothreitol, 0.5 mg ml^−1 BSA), then analysed with SDS–polyacrylamide gel electrophoresis (SDS–PAGE) followed by western blot analysis using antibodies against phospho-TAU (pT212) (1/3,000) and total TAU (1/3,000) proteins (Supplementary Fig. 14).
Category Parameter Description
Assay Type of assay Cell-based
Measurement Detection of TAU phosphorylation mediated by
Key reagents Rabbit polyclonal antibody against phosphorylated
Mouse monoclonal antibody against TAU (TAU-5)
ProteoTuner Shield System (Clontech Laboratories)
pcDNA5/FRT/TO vector and Flp-In/T-REx293 cells
Assay protocol Described in the sections "Methods" and "Results"
Library Library size Approximately 200
Library composition Synthetic chemical compounds, including derivatives
Source Laboratory of Chemical Bioscience, Institute of
Biomaterials and Bioengineering, Tokyo Medical and
Screen Format 6-well plates (FALCON) coated with polyethylenimine
Screen Concentration(s) tested 10 µM (0.1% DMSO) in DMEM with 1%FBS
Reagent/ compound dispensing system Manual
Detection instrument and software Western blot using primary anti-phospho- TAU and […]
Chemiluminescence of HRP was detected by the […]

[4] = biological target: T2, 3xFLAG-DYRK1A / CDC37-nanoKAZ (Homo sapiens, UniProt Q13627); set-up: expressed in transfected cells; host or cells: 293T cells stably expressing CDC37-nanoKAZ; method as in PMID 26234946; settings: cited from earlier work
human DYRK2 = biological target: T3, human DYRK2 (Homo sapiens, UniProt Q92630); assay: RI-in vitro kinase assay with DYRKtide; format: biochemical; settings: DYRKtide substrate; Fig. 8b, n=4; read-out: IC50, kinase activity of recombinant DYRK2
T3 construct: His-tagged full-length human DYRK2 recombinant proteins; His; purchased Millipore
T3 sequence (Q92630 whole entry): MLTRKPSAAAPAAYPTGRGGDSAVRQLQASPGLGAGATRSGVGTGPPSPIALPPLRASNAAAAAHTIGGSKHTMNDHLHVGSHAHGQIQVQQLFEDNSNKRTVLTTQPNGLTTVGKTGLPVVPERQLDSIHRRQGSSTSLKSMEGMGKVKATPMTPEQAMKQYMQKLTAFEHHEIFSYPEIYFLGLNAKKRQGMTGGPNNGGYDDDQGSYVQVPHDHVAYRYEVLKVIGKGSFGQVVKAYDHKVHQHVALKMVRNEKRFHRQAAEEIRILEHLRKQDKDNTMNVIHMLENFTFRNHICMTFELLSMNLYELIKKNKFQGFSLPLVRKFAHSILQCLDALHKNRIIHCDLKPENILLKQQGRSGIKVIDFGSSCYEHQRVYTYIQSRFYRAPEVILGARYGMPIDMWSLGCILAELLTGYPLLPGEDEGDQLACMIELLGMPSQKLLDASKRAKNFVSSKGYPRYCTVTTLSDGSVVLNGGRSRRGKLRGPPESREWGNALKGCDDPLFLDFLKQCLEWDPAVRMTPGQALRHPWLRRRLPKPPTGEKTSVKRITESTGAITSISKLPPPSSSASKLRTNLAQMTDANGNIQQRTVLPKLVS

GST-DYRK1A-TS Y319E = GST-DYRK1A-TS Y319E (Homo sapiens, UniProt Q13627, Y319E); assay: biochemical
Experimental: (§4) For the in vitro kinase assay, 2 μl (bed vol.) of the resin was incubated in a total volume of 25 μl of AR buffer containing 0.1 mg ml^−1 of BSA, 100 μM of ATP, 50 μM of DYRKtide peptide and the indicated concentrations of the small molecules, for 2 h at 37 °C. The consumption of ATP was measured with ADP-Glo Kinase Assay kit.

DYRK1A [5] = biological target: T1, DYRK1A; settings: PURExpress
Experimental: The PURExpress kit (New England Biolabs) was employed. DYRK1A was expressed at 37 °C for 40 min in a 12.5-μl reaction mixture containing 30 ng of pET28a(+)-FLAG-DYRK1A. […] For immunoprecipitation, 100 μl of PBS containing 0.5% Empigen BB, 0.5 mg ml^−1 BSA and 5 mM EDTA was added into the reaction mixture, then incubated with anti-FLAG (M2) beads at 4 °C for 6 h. The samples were prepared with an SDS-urea buffer, then analysed with SDS–PAGE followed by western blot (Supplementary Fig. 14). The band intensities were measured using the LAS-3000 (Fujifilm) and Multi Gauge software (Fujifilm).

GST-DYRK1A-TS WT = GST-DYRK1A-TS WT (Homo sapiens, UniProt Q13627); assay: biochemical
Experimental: as §4

[6] = biological target: T4, human DYRK1A kinase domain (Homo sapiens, UniProt Q13627); assay: RI-in vitro kinase assay with DYRKtide; format: biochemical; settings: for IC50: DYRKtide substrate
T4 construct: His-tagged human DYRK1A kinase domain (residues 127–485) was produced in E. coli; His; made in house; host or cells: E. coli
Experimental: (§3) The RI-in vitro kinase assay was performed as described previously, with some modifications. […] GST-tagged full-length human DYRK1B recombinant proteins and His-tagged full-length human DYRK2 recombinant proteins were obtained from Life Technologies and Millipore, respectively. The kinase reaction was performed in a reaction mixture containing serially diluted inhibitors, 10 mM MOPS-KOH (pH 7.0), 10 mM magnesium acetate, 200 μM EDTA, 1 μM ATP, 0.1–0.4 μCi [γ-^32P]ATP, 5 μM DYRKtide and 0.1–1 μg recombinant kinase, for a final volume of 25 μl. The final concentration of DMSO was adjusted to 1%, regardless of the inhibitor concentration. The reaction mixture was incubated at 30 °C for 10 min and phosphoric acid (final 5%) was then added to stop the reaction. We then dispensed 25 μl of the reaction mixture onto P81, a phosphocellulose membrane (Whatman, GE Healthcare), and washed four times in 5% phosphoric acid. Cherenkov light from the incorporated ^32P was measured using a liquid scintillation counter. The kinase assay conditions, including the incubation period and the concentration of the kinases and substrates, were optimized to maintain linearity during the incubation. The net radioactivity was determined by subtracting the background count from the reaction mixture without kinase, and the data were expressed as a percentage of the control sample containing the solvent.
The amount of incorporated ^32P was calculated from the standard line. The Km, Ki and Vmax values were calculated with Prism5 software (GraphPad Software) using the competitive inhibition model.

human DYRK1B = biological target: T5, human DYRK1B (Homo sapiens, UniProt Q9Y463); assay: RI-in vitro kinase assay with DYRKtide; format: biochemical
T5 construct: GST-tagged full-length human DYRK1B recombinant proteins; GST; purchased Life Technologies
T5 sequence (Q9Y463 whole entry): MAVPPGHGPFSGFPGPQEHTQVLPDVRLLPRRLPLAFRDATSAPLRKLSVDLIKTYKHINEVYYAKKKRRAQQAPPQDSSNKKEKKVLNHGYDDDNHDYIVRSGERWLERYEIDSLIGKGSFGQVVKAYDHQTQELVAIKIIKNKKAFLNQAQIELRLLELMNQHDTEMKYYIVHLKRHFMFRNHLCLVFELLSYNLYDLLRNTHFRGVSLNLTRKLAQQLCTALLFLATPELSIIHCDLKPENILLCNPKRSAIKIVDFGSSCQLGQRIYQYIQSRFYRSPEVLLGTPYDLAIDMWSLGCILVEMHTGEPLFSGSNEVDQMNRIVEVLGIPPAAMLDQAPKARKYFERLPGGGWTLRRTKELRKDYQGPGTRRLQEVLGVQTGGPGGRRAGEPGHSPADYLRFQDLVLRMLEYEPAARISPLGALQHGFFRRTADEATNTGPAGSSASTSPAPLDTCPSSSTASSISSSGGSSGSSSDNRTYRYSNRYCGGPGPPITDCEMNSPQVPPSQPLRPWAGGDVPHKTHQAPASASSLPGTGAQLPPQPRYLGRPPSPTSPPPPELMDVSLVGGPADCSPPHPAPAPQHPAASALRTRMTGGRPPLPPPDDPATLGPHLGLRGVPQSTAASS
Experimental: as §3

[7] = biological target: T2, 3xFLAG-DYRK1A / CDC37-nanoKAZ; settings: 24 h treatment; dose-dependent; 293T
Experimental: The wells were wash three times with ice-cold HENG buffer and then a luminescence assay was performed. […] The luminescence intensity was recorded at 0.1 s intervals for 10 s or 10 min. […] The relative amount of protein bound on the well was estimated from the absorbance.

DYRK1A [8] = biological target: T1, DYRK1A; settings: DYRKtide, 100 μM ATP; up to 32 μM compound
Experimental: For the in vitro kinase assay, 0.5 μl of the reaction mixture was incubated in a total volume of 25 μl of AR buffer containing 0.1 mg ml^−1 of BSA, 100 μM of ATP, 50 μM of DYRKtide peptide (Anaspec) and the indicated concentrations of the small molecules for 2 h at 37 °C. The consumption of ATP was measured with ADP-Glo Kinase Assay kit (Promega Corporation).

[9] = biological target: GST-DYRK1A-TS Y319E mutant (Homo sapiens, UniProt Q13627, Y319E); assay: biochemical; settings: ATP 100 μM
Experimental: The cells were cultured with IPTG (final 1 mM) for 24 h at 6 °C, then lysed with GET buffer (20 mM HEPES-KOH, pH 8.0, 150 mM NaCl, 1 mM EDTA, 2 mM dithiothreitol, 10% glycerol, 0.5% Empigen BB, 0.5% Triton X-100). Clarified cell lysates were loaded onto a Strep-Tactin Sepharose column (IBA) and the bound proteins were then eluted with GET buffer containing 2.5 mM desthiobiotin (IBA) and 1 mg ml^−1 BSA. The eluates were subsequently applied to GST-Accept resin (Nacalai Tesque). The resin was washed extensively, first with GET buffer, then with AR buffer (5 mM MOPS, pH7.2, 2.5 mM β-glycerol-phosphate, 5 mM MgCl2, 1 mM EGTA, 0.4 mM EDTA, 2 mM tris(2-carboxyethyl)phosphine). […] We then added 5 μl of 2 mg ml^−1 BSA to the suspension (final concentration of 0.1 mg ml^−1), followed by incubation at 37 °C for 30 min. […] The bound proteins were eluted with SDS-urea buffer, then analysed with SDS–PAGE followed by western blot (Supplementary Fig. 14).
The band intensities were measured using the ChemiDoc MP Imaging System (Bio-Rad). In Fig. 6d,e, the relative activity of the phosphorylation was calculated from the ATP-dependent increase in the intensity of the p-Ser97 and p-Tyr signals by subtracting the band intensity in the absence of ATP from that in the presence of ATP.

FLAG-DYRK1A = biological target: T6, FLAG-DYRK1A (Homo sapiens, UniProt Q13627); assay: 2A peptide bicistronic FLAG-DYRK1A/HA-EGFP expression in HEK293 cells, western blot; format: cell-based
T6 construct: F2A peptide (remnant left on the upstream protein after ribosome skipping) (C); expressed in transfected cells; host or cells: HEK293 (Flp-In/T-REx), vector stably integrated
Experimental: After incubation for 5 h, total cell lysates were subjected to SDS–PAGE followed by western blot analysis using the corresponding antibodies against FLAG, HA and GAPDH. Representative data from the pentaplicate experiments are shown. […] Representative data from the triplicate experiments are shown. […] Total cell lysates were subjected to SDS–PAGE followed by western blot analysis. Representative data from the triplicate experiments are shown.

Structure (SMILES): CC1(C(=O)O)C2CCC(O2)C1(C)C(=O)O (stereo not shown) [cantharidic acid]
- p-Ser97 signal in FLAG-DYRK1A (p-Ser97 of FLAG-DYRK1A): increased

Structure (SMILES): C=C1[C@@H](O)[C@@H]2O[C@]3(CC[C@H](/C=C/[C@@H](C)[C@@H]4CC(C)=C[C@@]5(O[C@H](C[C@@](C)(O)C(=O)O)CC[C@H]5O)O4)O3)CC[C@H]2O[C@@H]1[C@@H](O)C[C@H](C)[C@H]1O[C@@]2(CCCCO2)CC[C@H]1C [okadaic acid]
- p-Ser97 signal in FLAG-DYRK1A (p-Ser97 of FLAG-DYRK1A): did not increase

Structure (SMILES): CC(C)[C@H](CO)Nc1nc(Nc2cccc(Cl)c2)c2ncn(C(C)C)c2n1 [Purvalanol A]
- inhibition of the transitional intermediate of Drosophila DYRK2 [1]: inhibited
- inhibition of the mature kinase (Drosophila DYRK2) (mature Drosophila DYRK2): inhibited by both

Structure (SMILES): COC[C@@H]([C@H](O)[C@H](O)C(=O)NCC[C@H](C)c1nc(/C=C/C[C@@H]2O[C@]3(C[C@@H](O)[C@@H]2C)O[C@H]([C@H](C[C@H](O)[C@H](C)[C@H](O)[C@H](C)/C=C(C)/C(C)=C/C=C/C(C)=C\C#N)OC)[C@H](OP(=O)(O)O)C3(C)C)co1)N(C)C [calyculin A]
- p-Ser97 signal in FLAG-DYRK1A (p-Ser97 of FLAG-DYRK1A): did not increase

Structure (SMILES): CCN1/C(=C/C(C)=O)Sc2ccc(OC(C)=O)cc21 [proINDY]
- tadpoles developed normally when injected with DYRK1B mRNA (DYRK1B; Fig. 9b): 89.1%
- expression of neural marker genes in DYRK1B-overexpressing embryos (DYRK1B; RT-PCR, stage 25 head regions): increased
- developmental malformation induced by DYRK1B (DYRK1B; stage 40 tadpoles): repressed
- rescue of embryos injected with DYRK1A mRNA (small eyes) (DYRK1A [2]; Fig. 9b): almost completely rescued
- expression of neural marker genes in DYRK1A-overexpressing embryos (DYRK1A [2]; RT-PCR, stage 25 head regions): increased
- developmental malformation induced by DYRK1A (DYRK1A [2]; stage 40 tadpoles): repressed

Structure (SMILES): CCN1/C(=C/C(C)=O)Sc2ccc(O)cc21 [INDY]
- TAU phosphorylation in Tc 2 (DYRK1A [3]; 10 μM, compound added after accumulation of mature DYRK1A, HEK293): suppressed
- TAU phosphorylation in Tc 1 (DYRK1A [3]; 10 μM, compound added before doxycycline induction, HEK293): suppressed
- interaction between DYRK1A and CDC37-nanoKAZ [4]: weakened
- IC50 (human DYRK2): 0.0277 µM

Structure (SMILES): Brc1c(Br)c(Br)c2[nH]nnc2c1Br [TBB, 4,5,6,7-tetrabromo-1H-benzotriazole]
- inhibition of the mature kinase (Drosophila DYRK2) (mature Drosophila DYRK2): inhibited by both

Structure (SMILES): CCOc1cc(/C=C2\SC(=S)NC2=O)ccc1O [RD0392]
- TAU phosphorylation in HEK293 cells (DYRK1A [3]; Supplementary Fig. 2b): suppresses
- IC50 (GST-DYRK1A-TS Y319E): 0.813 µM
- signal from phosphorylated tyrosine in in vitro translation (DYRK1A [5]): no significant effects
- Ser97 autophosphorylation in in vitro translation (DYRK1A [5]; compound added prior to transcription): suppressed
- IC50 (GST-DYRK1A-TS WT): 0.325 µM
- Ki [6]: 0.132 µM
- IC50 ([6]; IC50, in vitro kinase activity of recombinant DYRK1A, Fig. 1f, n=4): 0.0602 µM
- IC50 ([6]; IC50, kinase activity of recombinant DYRK1A, Supplementary Fig. 13d, n=3): 0.0256 µM
- IC50 (human DYRK1B): 0.0533 µM
- interaction between DYRK1A and CDC37-nanoKAZ [7]: weakened
- substrate phosphorylation by DYRK1A produced in PURExpress (DYRK1A [8]): inhibited
- IC50 ([9]; IC50, Ser97 autophosphorylation): 0.205 µM
- IC50 ([9]; IC50, tyrosine phosphorylation): 0.514 µM
- amount of FLAG-DYRK1A (destabilization) (FLAG-DYRK1A): did not decrease
- IC50 (human DYRK2): 0.0456 µM
